Data reported in ChEMBL document CHEMBL1201862, “PubChem BioAssay data set” (2004).
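Tested at 5 concentrations; 48 h exposure; 96-well plates; endpoints linearly interpolated, else capped at highest concentration. At the GI50, growth is halved.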 Active and inactive are the calls of the source. Rule as the data show it: active = GI50 up to about 1.1 µM and inactive = higher.

Tests used:
Experiment in all cases: NCI-60 cell line screen, 48 h
SK-MEL-5 = tested on: SK-MEL-5
M19-MEL = tested on: M19-MEL
SK-MEL-2 = tested on: SK-MEL-2
DMS-273 = tested on: DMS-273
SK-OV-3 = tested on: SK-OV-3
EKVX = tested on: EKVX
DLD-1 = tested on: DLD-1
HT-29 = tested on: HT-29
SK-MEL-28 = tested on: SK-MEL-28
ACHN = tested on: ACHN
DMS-114 = tested on: DMS-114
NCI-H460 = tested on: NCI-H460
OVCAR-4 = tested on: OVCAR-4
A498 = tested on: A498
SN12C = tested on: SN12C
HCT-116 = tested on: HCT-116
NCI/ADR-RES = tested on: NCI/ADR-RES
LXFL 529 = tested on: LXFL 529
MDA-N = tested on: MDA-N
MDA-MB-435 = tested on: MDA-MB-435

Structure (SMILES)	GI50 (SK-MEL-5)	GI50 (M19-MEL)	GI50 (SK-MEL-2)	GI50 (DMS-273)	GI50 (SK-OV-3)	GI50 (EKVX)	GI50 (DLD-1)	GI50 (HT-29)	GI50 (SK-MEL-28)	GI50 (ACHN)	GI50 (DMS-114)	GI50 (NCI-H460)	GI50 (OVCAR-4)	GI50 (A498)	GI50 (SN12C)	GI50 (HCT-116)	GI50 (NCI/ADR-RES)	GI50 (LXFL 529)	GI50 (MDA-N)	GI50 (MDA-MB-435)
COC(=O)Cc1cc(=O)n2c([nH]c3ccccc32)c1C#N	34.8 µM (inactive)	> 100 µM (inactive)	> 100 µM (inactive)	> 100 µM (inactive)	36.1 µM (inactive)	> 100 µM (inactive)	30.8 µM (inactive)	> 100 µM (inactive)	> 100 µM (inactive)	63.1 µM (inactive)	> 100 µM (inactive)	35.9 µM (inactive)	> 100 µM (inactive)	> 100 µM (inactive)	82.6 µM (inactive)	> 100 µM (inactive)	–	–	–	–
C=CCNC(=O)C(C)C1CCC2(C)C=CC(=O)C(C)=C2C1O (stereo unspecified)	> 100 µM (inactive)	> 100 µM (inactive)	> 100 µM (inactive)	> 100 µM (inactive)	> 100 µM (inactive)	> 100 µM (inactive)	> 100 µM (inactive)	> 100 µM (inactive)	> 100 µM (inactive)	–	> 100 µM (inactive)	> 100 µM (inactive)	> 100 µM (inactive)	> 100 µM (inactive)	> 100 µM (inactive)	> 100 µM (inactive)	> 100 µM (inactive)	–	–	–
COc1ccc(-c2cc(N3CCN(c4ccc(Cl)cc4)CC3)c(C#N)c(=O)o2)cc1	11.9 µM (inactive)	–	15.6 µM (inactive)	16.3 µM (inactive)	–	11.4 µM (inactive)	25.8 µM (inactive)	> 100 µM (inactive)	6.9 µM (inactive)	6.64 µM (inactive)	7.41 µM (inactive)	10.5 µM (inactive)	2.45 µM (inactive)	16.4 µM (inactive)	15.1 µM (inactive)	12.6 µM (inactive)	–	16.7 µM (inactive)	–	–
COc1nc(N)c(NC(C)=O)c(=O)n1C	–	–	> 100 µM (inactive)	> 100 µM (inactive)	–	> 100 µM (inactive)	> 100 µM (inactive)	> 100 µM (inactive)	> 100 µM (inactive)	> 100 µM (inactive)	> 100 µM (inactive)	> 100 µM (inactive)	> 100 µM (inactive)	> 100 µM (inactive)	> 100 µM (inactive)	> 100 µM (inactive)	–	> 100 µM (inactive)	–	–
O=C(O)CCC(NC(=O)c1ccc(Nc2cnc3cc(C(F)(F)F)ccc3n2)cc1)C(=O)O (stereo unspecified)	> 100 µM (inactive)	–	> 100 µM (inactive)	> 100 µM (inactive)	> 100 µM (inactive)	> 100 µM (inactive)	> 100 µM (inactive)	> 100 µM (inactive)	> 100 µM (inactive)	–	> 100 µM (inactive)	> 100 µM (inactive)	> 100 µM (inactive)	> 100 µM (inactive)	> 100 µM (inactive)	> 100 µM (inactive)	> 100 µM (inactive)	–	–	–
COc1ccc(C(=O)C(C(=O)C(=O)NCCCNC(=O)C(=O)C(C(=O)c2ccc(OC)cc2)c2ccc(OC)cc2)c2ccc(OC)cc2)cc1 (stereo unspecified)	–	–	> 100 µM (inactive)	> 100 µM (inactive)	> 100 µM (inactive)	> 100 µM (inactive)	> 100 µM (inactive)	> 100 µM (inactive)	> 100 µM (inactive)	–	> 100 µM (inactive)	> 100 µM (inactive)	> 100 µM (inactive)	–	–	> 100 µM (inactive)	–	> 100 µM (inactive)	–	–
CC12CCC3C(CCC4(O)C=CCCC34C=O)C1(O)CC(O)C2c1ccc(=O)oc1 (stereo unspecified)	0.0565 µM (active)	0.0851 µM (active)	0.111 µM (active)	< 0.05 µM (active)	0.109 µM (active)	0.0564 µM (active)	0.0578 µM (active)	0.117 µM (active)	0.134 µM (active)	–	< 0.05 µM (active)	0.0527 µM (active)	0.0611 µM (active)	0.054 µM (active)	0.0519 µM (active)	0.0573 µM (active)	0.0679 µM (active)	–	–	–
COC(=O)[C@]1(C)CCCC2(C)C1CC[C@H]1C=C(C)[C@H]3CCC12C3 (stereo partly specified)	98.2 µM (inactive)	–	–	–	> 100 µM (inactive)	–	> 100 µM (inactive)	49.9 µM (inactive)	> 100 µM (inactive)	> 100 µM (inactive)	86.9 µM (inactive)	44.5 µM (inactive)	> 100 µM (inactive)	–	> 100 µM (inactive)	40.3 µM (inactive)	–	> 100 µM (inactive)	–	–
COC(=O)C1(CCCCCBr)CCCCCCCCCCC1=O (stereo unspecified)	16.3 µM (inactive)	–	28.9 µM (inactive)	–	> 100 µM (inactive)	78.9 µM (inactive)	–	42.2 µM (inactive)	35.3 µM (inactive)	40.7 µM (inactive)	–	58.6 µM (inactive)	19.8 µM (inactive)	28.3 µM (inactive)	37.6 µM (inactive)	26.4 µM (inactive)	37.2 µM (inactive)	–	29.2 µM (inactive)	37.6 µM (inactive)
